Experimental data: US10227357B2, “Compounds and methods for kinase modulation, and indications therefor” (Plexxikon Inc., priority 2012, dated 2019)

Tests used:
c-kit kinase = target: T1, c-kit kinase (Homo sapiens, UniProt P10721); assay: c-Kit biochemical assay, AlphaScreen, 10 μM ATP; settings: c-kit biochemical inhibitory activity; read-out: Biochemical activity (IC50 μM) Kit
T1 construct: The c-kit (or kinase domain thereof) is an active kinase in AlphaScreen; poly-Histidine tag (in-house protein only) (cleaved yes); host or cells: E. coli BL21(DE3)RIL, co-expressed with PTP1B
T1 sequence (P10721 26-976): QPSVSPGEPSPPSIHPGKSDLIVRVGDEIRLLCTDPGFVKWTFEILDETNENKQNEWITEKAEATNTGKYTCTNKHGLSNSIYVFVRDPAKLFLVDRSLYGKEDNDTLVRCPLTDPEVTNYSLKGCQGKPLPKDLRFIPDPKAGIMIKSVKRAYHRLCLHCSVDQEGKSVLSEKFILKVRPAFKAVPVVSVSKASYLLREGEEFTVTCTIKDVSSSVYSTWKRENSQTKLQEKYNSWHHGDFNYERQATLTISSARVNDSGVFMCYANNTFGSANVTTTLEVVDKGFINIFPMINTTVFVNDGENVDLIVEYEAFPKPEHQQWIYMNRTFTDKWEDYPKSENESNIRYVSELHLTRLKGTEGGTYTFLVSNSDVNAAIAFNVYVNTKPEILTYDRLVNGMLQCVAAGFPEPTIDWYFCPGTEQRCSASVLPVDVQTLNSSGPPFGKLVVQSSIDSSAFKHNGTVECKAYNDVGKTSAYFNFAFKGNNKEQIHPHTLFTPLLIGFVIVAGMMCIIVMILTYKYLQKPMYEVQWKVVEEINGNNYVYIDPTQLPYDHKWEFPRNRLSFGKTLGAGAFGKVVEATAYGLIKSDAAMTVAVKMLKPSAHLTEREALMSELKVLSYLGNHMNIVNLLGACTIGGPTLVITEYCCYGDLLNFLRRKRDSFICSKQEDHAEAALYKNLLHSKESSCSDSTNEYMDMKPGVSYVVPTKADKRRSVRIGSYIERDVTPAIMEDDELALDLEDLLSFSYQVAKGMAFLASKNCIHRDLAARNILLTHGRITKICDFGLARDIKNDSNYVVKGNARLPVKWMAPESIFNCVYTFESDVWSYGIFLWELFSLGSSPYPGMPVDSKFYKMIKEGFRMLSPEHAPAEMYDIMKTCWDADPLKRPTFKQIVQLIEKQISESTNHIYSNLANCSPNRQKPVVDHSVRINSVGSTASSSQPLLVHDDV
Outline: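 His-tagged c-Kit expressed in E. coli with co-expressed PTP1B (dephosphorylated), tag removed; 0.1 ng per reaction with biotinylated-peptide substrate in 50 mM HEPES pH 7.2, 5 mM MgCl2, 5 mM MnCl2, 5% DMSO, 10 μM ATP, 1 h at room temperature. Phosphorylation detected by AlphaScreen (streptavidin donor, PY20 acceptor beads); IC50 from 8-point 1:3 dilution series.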

c-kit mutant D816V = target: T2, c-kit mutant D816V (Homo sapiens, UniProt P10721, D816V/DEL694-753); assay: c-Kit mutant D816V biochemical assay, AlphaScreen; settings: c-kit D816V biochemical inhibitory activity; read-out: Biochemical activity (IC50 μM) Kit D816V
T2 construct: residues 551-934, kinase insertion domain residues 694-753 deleted; 6x-histidine (N); made in house; host or cells: E. coli Arctic Express (DE3) RIL (Stratagene)
T2 sequence (P10721 with tags, fused parts or gaps DEL694-753/D816V): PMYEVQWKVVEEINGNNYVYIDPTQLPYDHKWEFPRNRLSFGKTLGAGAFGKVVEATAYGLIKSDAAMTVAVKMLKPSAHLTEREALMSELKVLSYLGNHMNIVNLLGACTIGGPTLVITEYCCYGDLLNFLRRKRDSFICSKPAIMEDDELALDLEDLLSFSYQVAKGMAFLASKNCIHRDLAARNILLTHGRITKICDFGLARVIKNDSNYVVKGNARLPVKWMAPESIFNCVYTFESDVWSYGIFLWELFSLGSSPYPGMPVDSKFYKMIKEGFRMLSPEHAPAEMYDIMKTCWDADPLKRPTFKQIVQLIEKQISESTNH
Outline: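 Purified His-tagged c-Kit D816V (E. coli-expressed) assayed in 25 mM HEPES pH 7.2 with Mg/Mn, 5% DMSO and 10 μM ATP, 30 min at room temperature, 8-point 1:3 dilutions. Phosphorylation detected by AlphaScreen with streptavidin donor and PY20 acceptor beads; IC50 from signal versus concentration.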

Row | SMILES | IC50 (c-kit kinase) | IC50 (c-kit mutant D816V)
1 | C[C@@H]1CN(c2ncnc3[nH]c(-c4ccncc4)cc23)CCN1C(=O)Nc1ccc(Cl)cc1 [P-0065, (2R)-N-(4-chlorophenyl)-2-methyl-4-[6-(4-pyridyl)-7H-pyrrolo[2,3-d]pyrimidin-4-yl]piperazine-1-carboxamide] | 0.0001 to 1 µM | 0.0001 to 1 µM
2 | C[C@@H]1CN(c2ncnc3[nH]c(-c4ccncc4)cc23)CCN1C(=O)Nc1ccc(N(C)C)cc1 [P-0066, (2R)-N-(4-dimethylaminophenyl)-2-methyl-4-[6-(4-pyridyl)-7H-pyrrolo[2,3-d]pyrimidin-4-yl]piperazine-1-carboxamide] | 1 to 10 µM | 0.0001 to 1 µM
3 | O=C(Nc1ccc(OC(F)(F)F)cc1)N1CCN(c2ncnc3[nH]c(-c4ccccc4F)cc23)CC1 [P-0067, 4-[6-(2-fluorophenyl)-7H-pyrrolo[2,3-d]pyrimidin-4-yl]-N-[4-(trifluoromethoxy)phenyl]piperazine-1-carboxamide] | 0.0001 to 1 µM | 1 to 10 µM
4 | CC1CN(c2ncnc3[nH]c(-c4ccncc4)cc23)CCN1C(=O)Nc1ccccc1 (centres unmarked) [P-0068, 2-methyl-N-phenyl-4-[6-(4-pyridyl)-7H-pyrrolo[2,3-d]pyrimidin-4-yl]piperazine-1-carboxamide] | 1 to 10 µM | 1 to 10 µM
5 | CN(C)c1ccc(NC(=O)N2CCN(c3ncnc4[nH]c(-c5ccc(C#N)cc5)cc34)CC2)cc1 [P-0070, 4-[6-(4-cyanophenyl)-7H-pyrrolo[2,3-d]pyrimidin-4-yl]-N-(4-dimethylaminophenyl)piperazine-1-carboxamide] | 1 to 10 µM | 1 to 10 µM
6 | C[C@H]1CN(c2ncnc3[nH]c(-c4ccncc4)cc23)CCN1 [P-0071, 4-[(3S)-3-methylpiperazin-1-yl]-6-(4-pyridyl)-7H-pyrrolo[2,3-d]pyrimidine] | 10 to 200 µM | 1 to 10 µM
7 | C[C@H](NC(=O)N1CCN(c2ncnc3[nH]c(-c4ccc(F)cc4)cc23)CC1)c1cccc(OC(F)F)c1 [P-0072, N-[(1S)-1-[3-(difluoromethoxy)phenyl]ethyl]-4-[6-(4-fluorophenyl)-7H-pyrrolo[2,3-d]pyrimidin-4-yl]piperazine-1-carboxamide] | 1 to 10 µM | 0.0001 to 1 µM
8 | C[C@@H]1CN(c2ncnc3[nH]c(-c4ccncc4)cc23)CCN1 [P-0074, 4-[(3R)-3-methylpiperazin-1-yl]-6-(4-pyridyl)-7H-pyrrolo[2,3-d]pyrimidine] | 10 to 200 µM | 10 to 200 µM
9 | C[C@H](NC(=O)N1CCN(c2ncnc3[nH]c(-c4ccc(F)cc4)cc23)CC1)c1cccc(OC(F)(F)F)c1 [P-0075, 4-[6-(4-fluorophenyl)-7H-pyrrolo[2,3-d]pyrimidin-4-yl]-N-[(1S)-1-[3-(trifluoromethoxy)phenyl]lethyl]piperazine-1-carboxamide] | 10 to 200 µM | 1 to 10 µM
10 | CS(=O)(=O)Nc1ccc(-c2cc3c(N4CCN(C(=O)Nc5ccc(OC(F)(F)F)cc5)CC4)ncnc3[nH]2)cc1 [P-0077, 4-[6-[4-(methanesulfonamido)phenyl]-7H-pyrrolo[2,3-d]pyrimidin-4-yl]-N-[4-(trifluoromethoxy)phenyl]piperazine-1-carboxamide] | 0.0001 to 1 µM | 0.0001 to 1 µM
11 | NC(=O)c1cccc(-c2cc3c(N4CCN(C(=O)Nc5ccc(OC(F)(F)F)cc5)CC4)ncnc3[nH]2)c1 [P-0078, 4-[6-(3-carbamoylphenyl)-7H-pyrrolo[2,3-d]pyrimidin-4-yl]-N-[4-(trifluoromethoxy)phenyl]piperazine-1-carboxamide] | 0.0001 to 1 µM | 10 to 200 µM
12 | Cc1ncc(-c2cc3c(N4CCN(C(=O)NCc5ccc(F)cc5)CC4)ncnc3[nH]2)s1 [P-0079, N-[(4-fluorophenyl)methyl]-4-[6-(2-methylthiazol-5-yl)-7H-pyrrolo[2,3-d]pyrimidin-4-yl]piperazine-1-carboxamide] | 0.0001 to 1 µM | 0.0001 to 1 µM
13 | Cc1ncc(-c2cc3c(N4CCN(C(=O)Nc5ccc(OC(F)(F)F)cc5)CC4)ncnc3[nH]2)s1 [P-0080, 4-[6-(2-methylthiazol-5-yl)-7H-pyrrolo[2,3-d]pyrimidin-4-yl]-N-[4-(trifluoromethoxy)phenyl]piperazine-1-carboxamide] | 0.0001 to 1 µM | 0.0001 to 1 µM
14 | CNC(=O)c1cccc(-c2cc3c(N4CCN(C(=O)NCc5ccc(F)cc5)CC4)ncnc3[nH]2)c1 [P-0081, N-[(4-fluorophenyl)rnethyl]-4-[6-[3-(methylcarbamoyl)phenyl]-7H-pyrrolo[2,3-d]pyrimidin-4-yl]piperazine-1-carboxamide] | 1 to 10 µM | 0.0001 to 1 µM
15 | CC(=O)Nc1cccc(-c2cc3c(N4CCN(C(=O)NCc5ccc(F)cc5)CC4)ncnc3[nH]2)c1 [P-0082, 4-[6-(3-acetamidophenyl)-7H-pyrrolo[2,3-d]pyrimidin-4-yl]-N-[(4-fluorophenyl)methyl]piperazine-1-carboxamide] | 1 to 10 µM | 0.0001 to 1 µM
16 | NS(=O)(=O)c1cccc(-c2cc3c(N4CCN(C(=O)Nc5ccc(OC(F)(F)F)cc5)CC4)ncnc3[nH]2)c1 [P-0083, 4-[6-(3-sulfamoylphenyl)-7H-pyrrolo[2,3-d]pyrimidin-4-yl]-N-[4-(trifluoromethoxy)phenyl]piperazine-1-carboxamide] | 0.0001 to 1 µM | 0.0001 to 1 µM
17 | CC(=O)Nc1ccc(-c2cc3c(N4CCN(C(=O)Nc5ccc(OC(F)(F)F)cc5)CC4)ncnc3[nH]2)cn1 [P-0084, 4-[6-(6-acetamido-3-pyridyl)-7H-pyrrolo[2,3-d]pyrimidin-4-yl]-N-[4-(trifluoromethoxy)phenyl]piperazine-1-carboxamide] | 1 to 10 µM | 0.0001 to 1 µM
18 | CN(C)C(=O)c1cccc(-c2cc3c(N4CCN(C(=O)Nc5ccc(OC(F)(F)F)cc5)CC4)ncnc3[nH]2)c1 [P-0085, 4-[6-[3-(dimethylcarbamoyl)phenyl]-7H-pyrrolo[2,3-d]pyrimidin-4-yl]-N-[4-(trifluoromethoxy)phenyl]piperazine-1-carboxamide] | 0.0001 to 1 µM | 0.0001 to 1 µM
19 | N#Cc1ccc(-c2cc3c(N4CCN(C(=O)Nc5ccc(OC(F)(F)F)cc5)CC4)ncnc3[nH]2)cc1 [P-0086, 4-[6-(4-cyanophenyl)-7H-pyrrolo[2,3-d]pyrimidin-4-yl]-N-[4-(trifluoromethoxy)phenyl]piperazine-1-carboxamide] | 1 to 10 µM | 0.0001 to 1 µM
20 | COc1ncc(CNC(=O)N2CCN(c3ncnc4[nH]c(-c5ccc(F)cc5)cc34)CC2)cc1F [P-0087, N-[(5-fluoro-6-methoxy-3-pyridyl)methyl]-4-[6-(4-fluorophenyl)-7H-pyrrolo[2,3-d]pyrimidin-4-yl]piperazine-1-carboxamide] | 1 to 10 µM | 0.0001 to 1 µM
21 | C#Cc1cc2c(N3CCN(C(=O)Nc4ccc(OCC)cc4)CC3)ncnc2[nH]1 [P-0089, N-(4-ethoxyphenyl)-4-(6-ethynyl-7H-pyrrolo[2,3-d]pyrimidin-4-yl)piperazine-1-carboxamide] | 1 to 10 µM | 10 to 200 µM
22 | Cn1cc(-c2cc3c(N4CCN(C(=O)Nc5ccc(OC(F)F)cc5)CC4)ncnc3[nH]2)cn1 [P-0091, N-[4-(difluoromethoxy)phenyl]-4-[6-(1-methylpyrazol-4-yl)-7H-pyrrolo[2,3-d]pyrimidin-4-yl]piperazine-1-carboxamide] | 0.0001 to 1 µM | 0.0001 to 1 µM
23 | Cn1cc(-c2cc3c(N4CCN(C(=O)Nc5ccc(OC(F)(F)F)cc5)CC4)ncnc3[nH]2)cn1 [P-0092, 4-[6-(1-methylpyrazol-4-yl)-7H-pyrrolo[2,3-d]pyrimidin-4-yl]-N-[4-(trifluoromethoxy)phenyl]piperazine-1-carboxamide] | 0.0001 to 1 µM | 0.0001 to 1 µM
24 | COc1cccc([C@H](C)NC(=O)N2CCN(c3ncnc4[nH]c(-c5cnn(C)c5)cc34)CC2)c1 [P-0093, N-[(1S)-1-(3-methoxyphenyl)ethyl]-4-[6-(1-methylpyrazol-4-yl)-7H-pyrrolo[2,3-d]pyrimidin-4-yl]piperazine-1-carboxamide] | 0.0001 to 1 µM | 0.0001 to 1 µM
25 | C[C@H](NC(=O)N1CCN(c2ncnc3[nH]c(-c4cnn(C)c4)cc23)CC1)c1ccc(F)cc1 [P-0094, N-[(1S)-1-(4-fluorophenyl)ethyl]-4-[6-(1-methylpyrazol-4-yl)-7H-pyrrolo[2,3-d]pyrimidin-4-yl]piperazine-1-carboxamide] | 1 to 10 µM | 0.0001 to 1 µM
26 | C[C@H](NC(=O)N1CCN(c2ncnc3[nH]c(-c4cnn(C)c4)cc23)CC1)c1ccc(Cl)cc1 [P-0095, N-[(1S)-1-(4-chlorophenyl)ethyl]-4-[6-(1-methylpyrazol-4-yl)-7H-pyrrolo[2,3-d]pyrimidin-4-yl]piperazine-1-carboxamide] | 0.0001 to 1 µM | 0.0001 to 1 µM
27 | Cn1cc(-c2cc3c(N4CCN(C(=O)Nc5ccc(F)cc5)CC4)ncnc3[nH]2)cn1 [P-0096, N-(4-fluorophenyl)-4-[6-(1-methylpyrazol-4-yl)-7H-pyrrolo[2,3-d]pyrimidin-4-yl]piperazine-1-carboxamide] | 0.0001 to 1 µM | 0.0001 to 1 µM
28 | Cn1cc(-c2cc3c(N4CCN(C(=O)NCc5ccc(Cl)cc5)CC4)ncnc3[nH]2)cn1 [P-0097, N-[(4-chlorophenyl)methyl]-4-[6-(1-methylpyrazol-4-yl)-7H-pyrrolo[2,3-d]pyrimidin-4-yl]piperazine-1-carboxamide] | 0.0001 to 1 µM | 0.0001 to 1 µM
